Results as given in US8143294B2, “2-sulfanyl-substituted imidazole derivatives and their use as cytokine inhibitors” (priority 2007, dated 2012).

Target: p38α (Homo sapiens, UniProt Q16539)
Test: P38α enzyme inhibition assay (ATF-2 phosphorylation ELISA)
Format: biochemical
Settings: activated p38α, substrate ATF-2, ATP 100 μM, 60 minutes incubation, photometric readout 405 nm; read-out: Kinase assay IC50
Experimental: P38α Enzyme Inhibition Assay:
First the microtiter plates are coated using a dilution of ATF-2, substrate of p38α. Each step is followed by a threefold washing step. As the substrate doesn't cover the whole surface, blocking buffer is used to capture the free binding sites. In the meantime, the test compounds are diluted using the kinase buffer, which contains ATP [100 μM], phosphatase-inhibitors and the activated p38α.
The different dilutions of the test compounds are pipetted on the plate. ATP and the compounds compete for the enzyme's binding site. During an incubation time of 60 minutes ATF-2 is dual phosphorylated at Thr 69/71 by p38α kinase depending on its degree of inhibition. Next the first antibody is added into the wells. This antibody binds specifically at dual phosphorylated ATF-2 (Thr 69/71). Secondary antibody, that is conjugated with alkaline phosphatase, binds at the first one. Finally 4-NPP is given in the wells and after an incubation under cover of darkness it is photometrically analysed (405 nm).

Chain of p38α (Q16539 whole entry): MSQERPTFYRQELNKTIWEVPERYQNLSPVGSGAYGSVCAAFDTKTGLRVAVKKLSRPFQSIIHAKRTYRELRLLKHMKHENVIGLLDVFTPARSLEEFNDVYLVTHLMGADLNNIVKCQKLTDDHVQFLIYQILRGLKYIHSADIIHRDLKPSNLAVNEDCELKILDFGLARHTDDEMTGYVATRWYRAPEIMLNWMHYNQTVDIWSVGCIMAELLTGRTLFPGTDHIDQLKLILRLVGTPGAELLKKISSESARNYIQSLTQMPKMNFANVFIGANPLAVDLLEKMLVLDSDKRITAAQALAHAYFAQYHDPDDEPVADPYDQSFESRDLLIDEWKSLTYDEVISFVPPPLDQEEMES

Row | IC50 [nM] | SMILES
1 | 42 | CC(Nc1cc(-c2[nH]c(SCC(O)CO)nc2-c2ccc(F)cc2)ccn1)c1ccccc1 (stereo not drawn) [Example 8a, 3-(4-(4-Fluorophenyl)-5-(2-(1-phenylethylamino)pyridin-4-yl)-1H-imidazol-2-ylthio)propane-1,2-diol]
2 | 87 | OCC(O)CSc1nc(-c2ccc(F)cc2)c(-c2ccnc(NCc3ccccc3)c2)[nH]1 (stereo not drawn) [Example 8b, 3-(5-(2-(1-Benzylamino)pyridin-4-yl)-4-(4-fluorophenyl)-1H-imidazol-2-ylthio)propane-1,2-diol]
3 | 13 | CC(C)CNc1cc(-c2[nH]c(SCC(O)CO)nc2-c2ccc(F)cc2)ccn1 (stereo not drawn) [Example 8c, 3-(4-(4-Fluorophenyl)-5-(2-(isobutylamino)pyridin-4-yl)-1H-imidazol-2-ylthio)propane-1,2-diol]
4 | 26 | CCNc1cc(-c2[nH]c(SCC(O)CO)nc2-c2ccc(F)cc2)ccn1 (stereo not drawn) [Example 8d, 3-(5-(2-(Ethylamino)pyridin-4-yl)-4-(4-fluorophenyl)-1H-imidazol-2-ylthio)propane-1,2-diol]
5 | 100 | CNc1cc(-c2[nH]c(SCC(O)CO)nc2-c2ccc(F)cc2)ccn1 (stereo not drawn) [Example 8e, 3-(4-(4-Fluorophenyl)-5-(2-(methylamino)pyridin-4-yl)-1H-imidazol-2-ylthio)propane-1,2-diol]
6 | 14 | CC(C)C(C)Nc1cc(-c2[nH]c(SCC(O)CO)nc2-c2ccc(F)cc2)ccn1 (stereo not drawn) [Example 8f, 3-(4-(4-Fluorophenyl)-5-(2-(3-methylbutan-2-ylamino)pyridin-4-yl)-1H-imidazol-2-ylthio)propane-1,2-diol]
7 | 5.1 | CCC(C)Nc1cc(-c2[nH]c(SCC(O)CO)nc2-c2ccc(F)cc2)ccn1 (stereo not drawn) [Example 8g, 3-(4-(4-Fluorophenyl)-5-(2-(sec-butylamino)pyridin-4-yl)-1H-imidazol-2-ylthio)propane-1,2-diol]
8 | 3.6 | CC(C)Nc1cc(-c2[nH]c(SCC(O)CO)nc2-c2ccc(F)cc2)ccn1 (stereo not drawn) [Example 8h, 3-(4-(4-Fluorophenyl)-5-(2-(isopropylamino)pyridin-4-yl)-1H-imidazol-2-ylthio)propane-1,2-diol]
9 | 3.3 | OCC(O)CSc1nc(-c2ccc(F)cc2)c(-c2ccnc(NC3CCOCC3)c2)[nH]1 (stereo not drawn) [Example 8i, 3-(4-(4-Fluorophenyl)-5-(2-(tetrahydro-2H-pyran-4-ylamino)pyridin-4-yl)-1H-imidazol-2-ylthio)propane-1,2-diol]
10 | 10 | CC(C)C(C)Nc1cc(-c2[nH]c(SCCO)nc2-c2ccc(F)cc2)ccn1 (stereo not drawn) [Example 8k, 2-(4-(4-Fluorophenyl)-5-(2-(3-methylbutan-2-ylamino)pyridin-4-yl)-1H-imidazol-2-ylthio)ethanol]
11 | 17 | CC(C)C(C)Nc1cc(-c2[nH]c(SC[C@H](O)CO)nc2-c2ccc(F)cc2)ccn1 (stereo partly drawn) [Example 8l, (2R)-3-(4-(4-Fluorophenyl)-5-(2-(3-methylbutan-2-ylamino)pyridin-4-yl)-1H-imidazol-2-ylthio)propane-1,2-diol]
12 | 9.5 | CC(C)C(C)Nc1cc(-c2[nH]c(SC[C@@H](O)CO)nc2-c2ccc(F)cc2)ccn1 (stereo partly drawn) [Example 8m, (2S)-3-(4-(4-Fluorophenyl)-5-(2-(3-methylbutan-2-ylamino)pyridin-4-yl)-1H-imidazol-2-ylthio)propane-1,2-diol]
13 | 5.5 | CC(C)Nc1cc(-c2[nH]c(SC[C@H](O)CO)nc2-c2ccc(F)cc2)ccn1 [Example 8n, (2R)-3-(4-(4-Fluorophenyl)-5-(2-(isopropylamino)pyridin-4-yl)-1H-imidazol-2-ylthio)propane-1,2-diol]
14 | 3.2 | CC(C)Nc1cc(-c2[nH]c(SC[C@@H](O)CO)nc2-c2ccc(F)cc2)ccn1 [Example 8o, (2S)-3-(4-(4-Fluorophenyl)-5-(2-(isopropylamino)pyridin-4-yl)-1H-imidazol-2-ylthio)propane-1,2-diol]
15 | 35 | COC(=O)CSc1nc(-c2ccc(F)cc2)c(-c2ccnc(NC(C)c3ccccc3)c2)[nH]1 (stereo not drawn) [Example 8p, methyl 2-(4-(4-fluorophenyl)-5-(2-(1-phenylethylamino)pyridin-4-yl)-1H-imidazol-2-ylthio)acetate]
16 | 36 | CC(Nc1cc(-c2[nH]c(SCC(=O)O)nc2-c2ccc(F)cc2)ccn1)c1ccccc1 (stereo not drawn) [Example 8q, 2-(4-(4-fluorophenyl)-5-(2-(1-phenylethylamino)pyridin-4-yl)-1H-imidazol-2-ylthio)acetic acid]
17 | 20 | COC(=O)CSc1nc(-c2ccc(F)cc2)c(-c2ccnc(NC(C)C(C)C)c2)[nH]1 (stereo not drawn) [Example 8s, Methyl 2-(4-(4-fluorophenyl)-5-(2-(3-methylbutan-2-ylamino)pyridin-4-yl)-1H-imidazol-2-ylthio)acetate]
18 | 3.6 | COC(=O)CSc1nc(-c2ccc(F)cc2)c(-c2ccnc(NC(C)C)c2)[nH]1 [Example 8t, Methyl 2-(4-(4-fluorophenyl)-5-(2-(isopropylamino)pyridin-4-yl)-1H-imidazol-2-ylthio)acetate]
19 | 3 | CC(C)Nc1cc(-c2[nH]c(SCCO)nc2-c2ccc(F)cc2)ccn1 [Example 8u, 2-(4-(4-Fluorophenyl)-5-(2-(isopropylamino)pyridin-4-yl)-1H-imidazol-2-ylthio)ethanol]
20 | 2.3 | OCCSc1nc(-c2ccc(F)cc2)c(-c2ccnc(NC3CCOCC3)c2)[nH]1 [Example 8v, 2-(4-(4-Fluorophenyl)-5-(2-(tetrahydro-2H-pyran-4-ylamino)pyridin-4-yl)-1H-imidazol-2-ylthio)ethanol]
21 | 2 | OCCSc1nc(-c2ccc(F)cc2)c(-c2ccnc(N[C@H]3CC[C@H](O)CC3)c2)[nH]1 [Example 8w, (1R,4R)-4-(4-(4-(4-Fluorophenyl)-2-(2-hydroxyethylthio)-1H-imidazol-5-yl)pyridin-2-ylamino)cyclohexanol]
22 | 14 | CC(Nc1cc(-c2[nH]c(SCCO)nc2-c2ccc(F)cc2)ccn1)c1ccccc1 (stereo not drawn) [Example 8x, 2-(4-(4-Fluorophenyl)-5-(2-(1-phenylethylamino)pyridin-4-yl)-1H-imidazol-2-ylthio)ethanol]
23 | 3600 | OCC(O)CSc1nc(-c2ccc(F)cc2)c(-c2ccncc2)[nH]1 (stereo not drawn) [reference compound]

Row | SMILES | IC50 [nM]
24 | CCOP(=O)(CSc1nc(-c2ccc(F)cc2)c(-c2ccnc(NC(C)c3ccccc3)c2)[nH]1)OCC (stereo not drawn) [Example 8r, Diethyl (4-(4-fluorophenyl)-5-(2-(1-phenylethylamino)pyridin-4-yl)-1H-imidazol-2-ylthio)methylphosphonate] | 400
